Three compounds from ChEMBL document CHEMBL5715954, “Silencing c-Myc translation as a therapeutic strategy through targeting PI3Kδ and CK1ε in hematological malignancies” (Blood, 2017) can be followed below.

Set-up in all cases: scale not given: the % may be the effect or the level left
Test [1] concerns the target Cyclin-dependent kinase 1/cyclin B1 (Homo sapiens) (UniProt P06493+P14635). The experiment in a line: Inhibition of human CDK1/cyclin B assessed as enzyme activity at 1 uM using RB Protein as substrate preincubated for 20 mins followed by [gamma-33P]-ATP addition and measured after 120 mins by radiometric Hot-SpotSM Kinase assay relative to control. It counts as protein-complex assay.

Test [2] deals with T1, Homeodomain-interacting protein kinase 4 (Homo sapiens) (UniProt Q8NE63).
T1 sequence (whole entry): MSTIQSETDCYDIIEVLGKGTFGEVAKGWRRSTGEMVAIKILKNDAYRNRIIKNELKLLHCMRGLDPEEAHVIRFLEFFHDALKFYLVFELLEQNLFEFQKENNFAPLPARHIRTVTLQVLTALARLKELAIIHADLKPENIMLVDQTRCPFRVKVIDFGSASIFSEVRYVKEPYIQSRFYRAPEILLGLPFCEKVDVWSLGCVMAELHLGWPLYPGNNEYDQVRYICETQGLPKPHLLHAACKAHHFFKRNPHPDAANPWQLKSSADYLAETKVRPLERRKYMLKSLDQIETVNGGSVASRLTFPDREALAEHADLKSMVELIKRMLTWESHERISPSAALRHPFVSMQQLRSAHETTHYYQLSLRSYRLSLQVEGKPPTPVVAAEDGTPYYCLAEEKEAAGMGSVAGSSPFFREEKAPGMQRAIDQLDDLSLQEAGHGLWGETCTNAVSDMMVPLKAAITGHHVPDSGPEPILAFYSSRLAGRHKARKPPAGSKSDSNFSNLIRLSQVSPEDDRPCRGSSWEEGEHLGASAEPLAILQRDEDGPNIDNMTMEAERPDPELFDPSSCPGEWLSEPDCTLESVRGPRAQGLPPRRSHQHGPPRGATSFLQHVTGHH
In words: Inhibition of human HIPK4 assessed as enzyme activity at 1 uM using myelin basic protein as substrate preincubated for 20 mins followed by [gamma-33P]-ATP addition and measured after 120 mins by radiometric Hot-SpotSM Kinase assay relative to control.

For test [3], the target named is T2, Serine/threonine-protein kinase D1 (Homo sapiens) (UniProt Q15139).
T2 sequence (whole entry): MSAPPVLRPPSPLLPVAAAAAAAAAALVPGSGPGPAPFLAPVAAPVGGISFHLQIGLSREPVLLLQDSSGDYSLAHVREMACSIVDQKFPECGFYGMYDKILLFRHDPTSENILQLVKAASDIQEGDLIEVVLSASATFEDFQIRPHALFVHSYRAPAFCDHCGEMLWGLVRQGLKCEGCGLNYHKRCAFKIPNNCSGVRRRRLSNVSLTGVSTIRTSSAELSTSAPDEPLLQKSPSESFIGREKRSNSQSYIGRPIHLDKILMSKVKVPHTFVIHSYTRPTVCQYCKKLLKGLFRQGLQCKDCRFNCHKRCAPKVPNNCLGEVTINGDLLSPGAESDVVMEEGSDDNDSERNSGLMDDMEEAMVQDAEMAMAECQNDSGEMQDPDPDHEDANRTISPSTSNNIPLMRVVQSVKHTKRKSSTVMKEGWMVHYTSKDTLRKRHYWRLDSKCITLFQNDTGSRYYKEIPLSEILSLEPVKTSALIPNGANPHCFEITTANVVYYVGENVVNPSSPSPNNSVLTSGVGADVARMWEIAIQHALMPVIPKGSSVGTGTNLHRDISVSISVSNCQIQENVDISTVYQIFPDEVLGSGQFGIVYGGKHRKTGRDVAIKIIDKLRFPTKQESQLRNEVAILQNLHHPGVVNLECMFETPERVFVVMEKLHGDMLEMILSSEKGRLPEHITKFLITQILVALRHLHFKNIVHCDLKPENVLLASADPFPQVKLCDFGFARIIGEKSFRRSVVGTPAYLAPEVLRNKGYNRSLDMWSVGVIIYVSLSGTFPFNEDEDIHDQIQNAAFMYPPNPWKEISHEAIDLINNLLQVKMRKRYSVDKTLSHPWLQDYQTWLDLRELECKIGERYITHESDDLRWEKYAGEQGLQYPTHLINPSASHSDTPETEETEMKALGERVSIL
In words: Inhibition of human PKCmu assessed as enzyme activity at 1 uM using KKLNRTLSVA as substrate preincubated for 20 mins followed by [gamma-33P]-ATP addition and measured after 120 mins by radiometric Hot-SpotSM Kinase assay relative to control.

Test [4] has as its target Fibroblast growth factor receptor 2 (Homo sapiens) (UniProt P21802). The experiment in a line: Inhibition of human FGFR2 assessed as enzyme activity at 1 uM using poly[Glu:Tyr] (4:1) as substrate preincubated for 20 mins followed by [gamma-33P]-ATP addition and measured after 120 mins by radiometric Hot-SpotSM Kinase assay relative to control.
The target in test [5] is T3, Aurora kinase C (Homo sapiens) (UniProt Q9UQB9).
T3 sequence (whole entry): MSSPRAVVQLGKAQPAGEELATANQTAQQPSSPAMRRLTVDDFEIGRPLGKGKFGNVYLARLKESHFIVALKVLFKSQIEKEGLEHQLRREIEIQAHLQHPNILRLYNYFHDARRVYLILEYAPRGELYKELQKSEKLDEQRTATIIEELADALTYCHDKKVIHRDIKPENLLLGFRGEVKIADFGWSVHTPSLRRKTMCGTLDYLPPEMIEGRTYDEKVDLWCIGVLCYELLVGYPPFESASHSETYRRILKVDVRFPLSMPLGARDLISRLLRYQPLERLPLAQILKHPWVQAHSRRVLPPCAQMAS
In words: Inhibition of human Aurora C assessed as enzyme activity at 1 uM using H-LRRASLG as substrate preincubated for 20 mins followed by [gamma-33P]-ATP addition and measured after 120 mins by radiometric Hot-SpotSM Kinase assay relative to control.

Test [6] addresses Serine/threonine-protein kinase/endoribonuclease IRE1 (Homo sapiens) (UniProt O75460). The experiment in a line: Inhibition of human ERN1 assessed as enzyme activity at 1 uM using myelin basic protein as substrate preincubated for 20 mins followed by [gamma-33P]-ATP addition and measured after 120 mins by radiometric Hot-SpotSM Kinase assay relative to control.

Chain of Serine/threonine-protein kinase/endoribonuclease IRE1 (Homo sapiens) (O75460 19-977 limits assumed): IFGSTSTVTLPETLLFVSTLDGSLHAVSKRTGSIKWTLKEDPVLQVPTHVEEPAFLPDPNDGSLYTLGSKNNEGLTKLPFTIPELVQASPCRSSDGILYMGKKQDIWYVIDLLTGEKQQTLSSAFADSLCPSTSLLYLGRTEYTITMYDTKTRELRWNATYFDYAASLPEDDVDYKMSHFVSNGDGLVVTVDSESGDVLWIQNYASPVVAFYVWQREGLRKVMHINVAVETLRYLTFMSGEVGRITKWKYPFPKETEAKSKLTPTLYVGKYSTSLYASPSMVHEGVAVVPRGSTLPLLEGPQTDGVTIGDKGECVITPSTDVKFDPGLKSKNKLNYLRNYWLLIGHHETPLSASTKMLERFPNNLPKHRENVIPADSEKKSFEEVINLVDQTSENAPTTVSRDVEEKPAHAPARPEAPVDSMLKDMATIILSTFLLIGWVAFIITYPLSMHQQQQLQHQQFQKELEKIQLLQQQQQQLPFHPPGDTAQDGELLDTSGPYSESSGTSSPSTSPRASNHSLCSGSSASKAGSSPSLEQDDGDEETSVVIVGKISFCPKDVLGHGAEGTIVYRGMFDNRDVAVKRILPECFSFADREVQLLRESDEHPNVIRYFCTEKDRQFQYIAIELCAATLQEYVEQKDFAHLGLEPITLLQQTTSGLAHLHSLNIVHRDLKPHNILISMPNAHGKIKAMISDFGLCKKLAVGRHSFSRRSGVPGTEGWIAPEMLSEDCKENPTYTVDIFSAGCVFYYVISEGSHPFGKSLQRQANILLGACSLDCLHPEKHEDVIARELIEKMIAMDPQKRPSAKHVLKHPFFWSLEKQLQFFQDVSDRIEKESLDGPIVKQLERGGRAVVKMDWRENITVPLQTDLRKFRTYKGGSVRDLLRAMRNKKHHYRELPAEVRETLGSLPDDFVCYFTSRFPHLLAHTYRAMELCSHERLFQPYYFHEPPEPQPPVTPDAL
Chain of Fibroblast growth factor receptor 2 (Homo sapiens) (P21802 22-821 limits assumed): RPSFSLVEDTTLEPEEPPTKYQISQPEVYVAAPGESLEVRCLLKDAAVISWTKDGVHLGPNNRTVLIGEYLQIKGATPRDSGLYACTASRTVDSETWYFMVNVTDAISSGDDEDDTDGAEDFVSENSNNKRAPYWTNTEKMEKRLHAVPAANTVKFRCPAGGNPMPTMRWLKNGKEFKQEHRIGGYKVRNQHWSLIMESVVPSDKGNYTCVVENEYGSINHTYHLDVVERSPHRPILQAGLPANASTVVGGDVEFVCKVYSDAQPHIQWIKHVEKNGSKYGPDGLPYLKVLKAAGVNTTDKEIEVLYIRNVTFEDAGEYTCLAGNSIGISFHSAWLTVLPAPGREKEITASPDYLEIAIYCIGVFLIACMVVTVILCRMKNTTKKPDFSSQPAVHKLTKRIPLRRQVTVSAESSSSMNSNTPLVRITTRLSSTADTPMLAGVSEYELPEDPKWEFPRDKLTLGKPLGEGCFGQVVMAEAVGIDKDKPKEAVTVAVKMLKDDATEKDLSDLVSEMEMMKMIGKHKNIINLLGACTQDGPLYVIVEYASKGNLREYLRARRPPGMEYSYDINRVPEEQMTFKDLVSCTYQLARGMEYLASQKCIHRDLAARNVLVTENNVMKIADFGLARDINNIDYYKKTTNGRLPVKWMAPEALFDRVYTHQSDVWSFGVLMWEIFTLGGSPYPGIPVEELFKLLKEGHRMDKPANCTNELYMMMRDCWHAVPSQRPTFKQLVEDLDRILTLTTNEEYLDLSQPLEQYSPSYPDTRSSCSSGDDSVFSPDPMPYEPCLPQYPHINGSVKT
Chain of Cyclin-dependent kinase 1/cyclin B1 (Homo sapiens) (P06493 whole entry, looked up): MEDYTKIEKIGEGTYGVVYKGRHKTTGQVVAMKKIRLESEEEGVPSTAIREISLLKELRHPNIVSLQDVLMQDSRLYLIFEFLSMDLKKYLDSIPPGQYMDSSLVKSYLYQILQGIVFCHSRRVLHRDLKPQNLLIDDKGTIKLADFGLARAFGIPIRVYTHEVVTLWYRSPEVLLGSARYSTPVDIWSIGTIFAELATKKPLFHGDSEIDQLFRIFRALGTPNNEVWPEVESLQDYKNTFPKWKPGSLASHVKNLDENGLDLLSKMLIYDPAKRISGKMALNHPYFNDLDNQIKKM
Chain of Cyclin-dependent kinase 1/cyclin B1 (Homo sapiens) (P14635 whole entry, looked up): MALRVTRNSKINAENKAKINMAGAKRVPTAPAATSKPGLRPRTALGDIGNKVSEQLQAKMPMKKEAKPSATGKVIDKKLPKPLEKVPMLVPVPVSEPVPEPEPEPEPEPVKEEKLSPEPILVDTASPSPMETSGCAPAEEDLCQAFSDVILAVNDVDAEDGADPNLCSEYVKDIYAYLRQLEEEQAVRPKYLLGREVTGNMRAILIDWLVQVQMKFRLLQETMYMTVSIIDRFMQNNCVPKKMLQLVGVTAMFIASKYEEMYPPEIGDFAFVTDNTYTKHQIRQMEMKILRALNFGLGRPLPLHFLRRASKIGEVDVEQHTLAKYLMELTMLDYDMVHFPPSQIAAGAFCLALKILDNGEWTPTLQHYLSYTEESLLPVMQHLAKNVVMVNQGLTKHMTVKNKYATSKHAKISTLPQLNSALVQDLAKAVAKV

With `C[C@H](Nc1ncnc2nc[nH]c12)c1cc2cccc(Cl)c2c(=O)n1-c1ccccc1`, the Activity in test [1] was 97%; in test [2], 98.9%; in test [3], 96.1%; in test [4] it was 93.9%; in test [5] it was 89.4%; in test [6], 97.3%.
As for `CC[C@H](Nc1ncnc2[nH]cnc12)c1nc2cccc(F)c2c(=O)n1-c1ccccc1`, the Activity in test [1] amounted to 102%; in test [2], 92.9%; in test [3], 92.3%; in test [4], 95.8%; in test [5] it was 90.8%; in test [6] it was 96.4%.
As to `CC(C)Oc1ccc(-c2nn([C@@H](C)c3oc4ccc(F)cc4c(=O)c3-c3cccc(F)c3)c3ncnc(N)c23)cc1F` [UMBRALISIB], the Activity in test [1] amounted to 98.9%; in test [2], 113%; in test [3] it was 92.7%; in test [4] it was 97.8%; in test [5], 94.2%; in test [6], 91.6%.
